# Laboratory results from EP3483233A1, “LUBRICANT BASE OIL COMPOSITIONS OF MONO-UNSATURATED DIBASIC ACID ESTERS WITH BRANCHED ALCOHOLS” (ARKEMA FRANCE, priority 2017, dated 2019).
# Tests used:
# Format in all cases: physicochemical
# [1] = Kinematic viscosity with capillary Cannon-Fenske viscometers; Viscosity Index calculated per ASTM D2270
# Procedure: Kinematic viscosities at 40°C and 100°C were measured using capillary Cannon-Fenske viscometers per ASTM […]. Viscosity Index (the value, describing the rate of thinning with increasing temperature) was calculated per ASTM D2270.
# [2] = Pour point and cloud point, cooling regime of ASTM D97
# Procedure: Pour points and cloud points were determined using the same thermal cooling regime, as instructed by ASTM D97. The sample sizes were 5 to 15 mL during the measurements.
# Cloud points were determined during the same run by visual inspection of the sample appearance at low temperature. The samples were removed from the freezer every 3°C for visual inspection and, if cloudy, meniscus movement with inversion. The pour point resembled the last measurement, at which the meniscus boundary was still moving within 5 seconds of horizontal inversion. All samples were tested in duplicate.
# In engine oils and hydraulic fluids, low temperature fluidity is primarily determined by pour points [ASTM D97]. Generally, pour points below -30°C are considered sufficient. Some polymer additives, e.g. "Pour Point Depressants" (PPD), are able to improve low temperature fluidity. […] Therefore, initially pour points and cloud points [ASTM D2500 "Standard Test Method for Cloud Point of Petroleum Products and Liquid Fuels"] of α-ω dibasic esters were evaluated and shown in Table 4.
# [3] = Thin film test, volatile losses (500 µm oil film on steel coupon, forced-draft oven, gravimetric); settings: 500 µm thick films at 120°C
# Text: (§1) The exact procedure, used here, has been described in detail by Stoncius, A. et al. in "Volatiles from Thin Film Degradation of Bio-based, Synthetic and Mineral Basestocks", published in Industrial Lubrication & Tribology, 2013, 65 (3) 209-215, 2013, Emerald Group Publishing Edition or by Brazinskiene, D. et al. in "Ester Basestock Vaporisation from Thin Oil Films", published in Lubrication Science, DOI: 10.1002/ls.1372, pp 1-17, 2017, Wiley Edition.
# (§2) Briefly, an oil film of 500 µm thickness was coated on steel coupon and heated at given temperature for specific duration in a forced-draft oven. Afterwards, the volatile losses and insoluble residues were measured gravimetrically.
# As discussed in the prior-art review, volatility can be successfully evaluated in a thin film test as described by Stoncius, A. et al. in "Volatiles from Thin Film Degradation of Bio-based, Synthetic and Mineral Basestocks" published in Industrial Lubrication & Tribology, 2013, 65 (3) 209-215, Emerald Group Publishing Edition or by Brazinskiene, D. et al. in "Ester Basestock Vaporisation from Thin Oil Films" published in Lubrication Science, DOI: 10.1002/ls.1372, pp 1-17, 2017, Wiley Edition. This thin-film method is much better suited for hydraulic fluid applications than NOACK or other tests, which employ 250°C or similar temperatures, related to engine oil applications. Also, the above method accounts for longer term decomposition reactions due to exposure to metal surfaces and oxidation, which is prevalent in hydraulic applications. Therefore, using the thin-film method short-term vapor losses were measured after 16 hrs and decomposition trends were compared after 36 hrs of testing. Heating temperature of 120°C was selected to compare thin films of α,ω dibasic esters with commercial basestocks. Table 5. Volatile emissions, % w/w from 500 µm thick films of α-ω dibasic esters and commercial basestocks at 120°C
# [4] = Thin film test, oxidative stability (time to insoluble residues and to solidification); settings: 500 µm thick films at 120°C
# Text: as §1, §2
# Therefore, thin films of commercial basestocks and α-ω dibasic esters were compared by exposing their thin films to 120°C as described by Stoncius, A. et al. in "Volatiles from Thin Film Degradation of Bio-based, Synthetic and Mineral Basestocks" published in Industrial Lubrication & Tribology, 2013, 65 (3), 209-215, Emerald Group Publishing Edition or by Brazinskiene, D. et al. in "Ester Basestock Vaporisation from Thin Oil Films" published in Lubrication Science, DOI: 10.1002/ls.1372, pp 1-17, 2017, Wiley Edition.
# The thin-film method determines how resistant oil is against formation of insoluble residues during oxidation. Degradation durations until initial formation of solid residues and complete solidification directly relate to oxidative stability.
# [5] = Solubility of lubricant additives in the basestocks
# Procedure: Several typical lubricant additives have been tested for solubility in α-ω dibasic esters of 2-ethyl hexanol 26U18 and 26S12 as well as commercial basestock 350N. The additives were mixed in at temperatures of 50°C or lower and held for longer than a week at room temperature. Table 7. Solubility of lubricant additives, dissolved in α-ω dibasic esters and commercial basestocks
# The additives were selected to represent different chemical categories: soaps, heterocycles, phosphorous derivatives, polymers, etc. Most of these additives are designed to be dissolved in paraffinic mineral oils and synthetic lubricants with some heating. It is often thought that esters are better solvents than mineral oils or synthetic hydrocarbons like poly α-olefins. Therefore, the tested concentrations were much higher than additive proportions for hydraulic fluids, as recommended by the additive manufacturers.
substance,measurement,setting,value
"1,18-di(2-ethylhexyl) octadec-9-enedioate [26U18]",Viscosity Index,[1]; calculated per ASTM D2270 from viscosities at 40°C and 100°C,197
same,"Viscosity, mm^2/s at 40°C",[1]; kinematic viscosity at 40°C,22.74 mm^2/s
same,"Viscosity, mm^2/s at 100°C",[1]; kinematic viscosity at 100°C,5.53 mm^2/s
same,"Pour point, °C",[2],-57 °C
same,"Cloud point, °C",[2]; visual inspection during the same run,-36 °C
same,"Volatile emissions, 16 hrs",[3]; 16 hrs,5.5 % w/w
same,"Volatile emissions, 36 hrs",[3]; 36 hrs,10.7 % w/w
same,Full solidification observed,[4],320 h
same,Initial residues observed,[4],248 h
same,Vapor loss at solidification,[4]; at the duration of full film solidification,57% w/w
same,Solubility of 1% w/w Vanlube 7723,"[5]; Alkyl dithiocarbamate, mixed in at 50°C or lower, held longer than a week at room temperature",soluble
same,Solubility of 1% w/w Irgalube ML605A,"[5]; Amine and phosphate derivatives, mixed in at 50°C or lower, held longer than a week at room temperature",soluble
same,Solubility of 1% w/w Vanlube 7611 M,"[5]; Phosphoro dithioate, mixed in at 50°C or lower, held longer than a week at room temperature",soluble
same,Solubility of 5% w/w Viscoplex 10-310,"[5]; Poly alkyl methacrylate, mixed in at 50°C or lower, held longer than a week at room temperature",soluble
same,Solubility of 2% w/w Vanlube RI- A,"[5]; Soap and ester derivatives, mixed in at 50°C or lower, held longer than a week at room temperature",soluble
same,Solubility of 1% w/w Cobratec TT-100,"[5]; Tolyl triazole, mixed in at 50°C or lower, held longer than a week at room temperature",soluble
same,Initial solution appearance,"[5]; all tested additives blended in, unchanged after 1 week at room temperature",bright and clear
